Reference: ChEMBL document CHEMBL1139270, “Design, synthesis, and biological evaluation of a scaffold for iGluR ligands based on the structure of (-)-kaitocephalin” (2009)
Activity calls are given as the source filed them. No cut-off for these calls is given here.

What was measured:
[1] = Antagonist activity at rat AMPA receptor expressed in Xenopus oocytes assessed as reduction of kainate-induced membrane current at 100 uM relative to kainate; assay type: functional, Oocyte; parameters: scale not given: the % may be the effect or the level left
[2] = test system: Oocyte; test: Agonist activity at rat KA receptor expressed in Xenopus oocytes at 100 uM; assay type: functional, cell-based
[3] = test system: Oocyte; test: Agonist activity at rat AMPA receptor expressed in Xenopus oocytes at 100 uM; assay type: functional, cell-based
[4] = Antagonist activity at rat KA receptor expressed in Xenopus oocytes assessed as reduction of kainate-induced membrane current at 100 uM relative to kainate; assay type: functional, Oocyte; parameters: scale not given: the % may be the effect or the level left

| Activity [2] | Activity [3] | SMILES | Activity [1] [%] | Activity [4] [%] |
| --- | --- | --- | --- | --- |
| inactive | inactive | N[C@@H](C(=O)O)[C@H](O)[C@@]1(C(=O)O)CC[C@H](c2ccccc2)N1 | 72 | 72 |
| inactive | inactive | Cc1ccc([C@H]2CC[C@](C(=O)O)([C@@H](O)[C@@H](N)C(=O)O)N2)cc1 | 83 | 83 |
| inactive | inactive | Cc1ccccc1[C@H]1CC[C@](C(=O)O)([C@@H](O)[C@@H](N)C(=O)O)N1 | 49 | 49 |
| inactive | inactive | Cc1cccc([C@H]2CC[C@](C(=O)O)([C@@H](O)[C@@H](N)C(=O)O)N2)c1 | 75 | 75 |
